No end group written: not given here.
Assays:
S. aureus USA300 LAC [1] = assay: Inhibition of biofilm attachment (XTT); format: cell-based, Staphylococcus aureus; details: concentration series, Figure 6A
Excerpt: Antimicrobial effects of the peptides are different on diverse forms of bacteria. The free and motile forms cultivated in laboratories are the planktonic bacteria onto which the peptides and antibiotics can have direct effects. However, the activity of the microbicides can be reduced to the biofilm forms where bacteria are less exposed and hidden inside the shield. The development of the biofilms starts with the attachment of the individual cells on the substratum followed by biofilm growth and maturation into more solid biomass. We tested the ability of WW295 and WW298 in fighting the biofilms of S. aureus USA300 LAC at the two stages. […] These 96-well commercial plates were pre-treated commercially with tissue culture to enhance cell adhesion.
This experiment was performed to measure the ability of the peptide to inhibit bacterial attachment, the initial step for biofilm formation. In short, an overnight culture of S. aureus USA300 was grown in TSB media to an optical density (600 nm) of ∼1.0. […] Live cells in the biofilms were then quantitated using XTT [2,3-bis(2-methyloxy-4-nitro-5-sulfophenyl)-2H-tertazolium-5-carboxanilide] assay by following the manufacturer’s instructions with modifications. […] Absorbance at 450 nm (only media with XTT containing wells served as the blank) was obtained using a Chromate^TM microtiter plate reader. […]

S. aureus USA300 LAC [2] = assay: Membrane depolarization, DiBAC4(3); format: cell-based, Staphylococcus aureus; details: 12.5 µM
Method: Bacteria surfaces are negative and cationic peptides are able to neutralize the negative charge, thereby reducing membrane potential. To test this possibility, we evaluated the peptides against S. aureus USA300 LAC using a fluorescent indicator dye, the DiBAC4(3) (Figure 5).
The overnight culture of S. aureus USA300 LAC was grown in TSB media to the exponential phase. Cells were then pelleted and washed with PBS twice, and re-suspended in twice the volume of PBS containing 25 mM glucose for 15 min at 37 °C. For membrane depolarization measurements, 250 nM (final concentration) of the dye DiBAC4(3) (bis-(1,3-dibutylbarbituric acid) trimethine oxonol (ANASPEC, Fremont, CA, USA) was added, and vortexed gently. Ninety microliters of the energized bacteria solution were then added in a 96-well microtiter plate (Corning COSTAR). The plate was immediately placed into a FLUOstar Omega (BMG LABTECH Inc., Cary, NC, USA) microplate reader and fluorescence was measured for 20 min. Once the readings are stabilized, 10 μL of peptide solution were added and the fluorescence readings were continued for another 40 min. Measurements were done at an excitation and emission wavelengths of 485 and 520 nm, respectively. Triton X-100 (0.1%) was included as a positive control.

E. coli K12 = format: cell-based, Escherichia coli; details: K12
Method: (§1) The antimicrobial activity spectrum of the WW peptide series was performed on a panel of Gram-positive and -negative bacteria using the standard broth micro-dilution method with minor modifications as described. […] There was a small change in the case of Pseudomonas aeruginosa and Acinetobacter baumannii up to two-fold. Four-fold changes were found for Staphylococcus aureus, Staphylococcus epidermidis, Escherichia coli, and Bacillus subtilis. However, we observed over eight-fold MIC changes for Klebsiella pneumoniae and vancomycin-resistant enterococcus (VRE). […] We also observed more than eight-fold changes in minimal bacterial killing concentrations.
(§2) The antibacterial activity of peptides was evaluated using a standard broth microdilution protocol with minor modifications as previously described. In brief, logarithmic phase bacterial cultures (i.e., optical density at 600 nm ≈ 0.5) were diluted to OD600~0.001 and partitioned into a 96-well polystyrene microplate at 90 μL per well. After treatment with 10 μL of peptide solutions two-fold diluted to various concentrations, microplates were incubated at 37 °C overnight and read on a ChroMate 4300 Microplate Reader at 630 nm (GMI, Ramsey, MN). […] Minimal bactericidal concentration (MBC) was determined by plating the clear wells at MIC or above. The peptide concentration that caused no bacterial growth on the petri dish is MBC.

E. coli ATCC 25922 = assay: Propidium iodide membrane permeation assay; format: cell-based, Escherichia coli; details: peptide 3.1 µM, read every 5 min for 2 h
Method: Although not general, cationic antimicrobial peptides frequently target bacterial membranes. A fluorescence-based assay was performed for the determination the membrane active nature of peptides. A rapid increase in the fluorescence was detected as a consequence of peptide treatment at 3.1 µM, indicating membrane damage (Figure 3).
The experiment was performed as previously described with minor modifications. Serially diluted 10× peptides (10 μL each well) were created in 96-well microtiter plates. Propidium iodide (2 μL) at a fixed concentration of 20 μM was added to each well followed by 88 μL of the S. aureus USA300 or E. coli ATCC 25922 culture (a final OD600 ~0.1 in PBS). The plate was incubated at 37 °C with continuous shaking at 100 rpm in a FLUOstar Omega (BMG LABTECH Inc, Cary, NC, USA) microplate reader. The fluorescence from the plate was read every 5 min for a total duration of 2 h with excitation and emission wavelengths of 584 and 620 nm, respectively. Data were analyzed using the MARS data analysis software provided by the manufacturer and representative plots were made using the GraphPad Prism software (version: 7.0).

E. faecium VRE = format: cell-based; details: VRE
Method: as §1, §2

S. aureus USA300 = format: cell-based, Staphylococcus aureus; details: USA300
Method: as §2

RKIWWWWL [WW295]
effect on surface adherence of MRSA (in words) (S. aureus USA300 LAC [1]): did not show any effects | membrane depolarization (DiBAC4(3) fluorescence) (S. aureus USA300 LAC [2]): less active in depolarizing the membranes | Minimal Inhibitory Concentration (MIC), EC (E. coli K12): 6.2 µM | propidium iodide fluorescence buildup (membrane permeation) (E. coli ATCC 25922): steady fluorescence buildup | Minimal Inhibitory Concentration (MIC), VRE (E. faecium VRE): 6.25 µM | MBC, USA300 (S. aureus USA300): 12.5 µM

From article PMC7600788, “Sequence Permutation Generates Peptides with Different Antimicrobial and Antibiofilm Activities” (Pharmaceuticals, 2020)
